Activity calls are given as the source filed them.
Key:
Ion channel NompC = Ion channel NompC (Danio rerio, UniProt Q7T1G6); assay: Fluorescence counterscreen assay for TRPML3 agonists: dose response cell-based high-throughput screening assay to identify agonists of the transient receptor potential channel N1 (TRPN1). [Related pubchem assays: 1526, 1424, 1448 ]; format: functional
Mucolipin-3 = molecular target: T1, Mucolipin-3 (Homo sapiens, UniProt Q8TDD5); assay: Dose response cell-based high-throughput screening assay for agonists of the transient receptor potential channel ML3 (TRPML3). [Related pubchem assays: 1526, 1424, 1448 ]; format: functional
T1 sequence (Q8TDD5 whole entry): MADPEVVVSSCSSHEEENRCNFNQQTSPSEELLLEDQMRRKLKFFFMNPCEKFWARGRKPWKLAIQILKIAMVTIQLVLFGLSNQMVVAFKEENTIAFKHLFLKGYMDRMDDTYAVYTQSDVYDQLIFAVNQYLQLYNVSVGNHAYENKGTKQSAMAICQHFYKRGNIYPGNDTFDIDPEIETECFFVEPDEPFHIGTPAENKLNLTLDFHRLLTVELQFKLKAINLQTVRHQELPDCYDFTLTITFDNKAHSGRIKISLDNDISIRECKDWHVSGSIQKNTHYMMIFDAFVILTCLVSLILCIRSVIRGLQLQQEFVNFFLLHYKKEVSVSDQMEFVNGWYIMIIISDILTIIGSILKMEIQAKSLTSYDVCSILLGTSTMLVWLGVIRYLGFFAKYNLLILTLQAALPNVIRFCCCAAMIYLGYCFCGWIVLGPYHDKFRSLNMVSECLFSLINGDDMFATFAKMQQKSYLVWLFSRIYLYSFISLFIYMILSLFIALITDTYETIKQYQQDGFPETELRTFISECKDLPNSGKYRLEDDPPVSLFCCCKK

[1] = molecular target: T2, Histone-lysine N-methyltransferase NSD2 (Homo sapiens, UniProt O96028); format: biochemical
T2 sequence (O96028 whole entry): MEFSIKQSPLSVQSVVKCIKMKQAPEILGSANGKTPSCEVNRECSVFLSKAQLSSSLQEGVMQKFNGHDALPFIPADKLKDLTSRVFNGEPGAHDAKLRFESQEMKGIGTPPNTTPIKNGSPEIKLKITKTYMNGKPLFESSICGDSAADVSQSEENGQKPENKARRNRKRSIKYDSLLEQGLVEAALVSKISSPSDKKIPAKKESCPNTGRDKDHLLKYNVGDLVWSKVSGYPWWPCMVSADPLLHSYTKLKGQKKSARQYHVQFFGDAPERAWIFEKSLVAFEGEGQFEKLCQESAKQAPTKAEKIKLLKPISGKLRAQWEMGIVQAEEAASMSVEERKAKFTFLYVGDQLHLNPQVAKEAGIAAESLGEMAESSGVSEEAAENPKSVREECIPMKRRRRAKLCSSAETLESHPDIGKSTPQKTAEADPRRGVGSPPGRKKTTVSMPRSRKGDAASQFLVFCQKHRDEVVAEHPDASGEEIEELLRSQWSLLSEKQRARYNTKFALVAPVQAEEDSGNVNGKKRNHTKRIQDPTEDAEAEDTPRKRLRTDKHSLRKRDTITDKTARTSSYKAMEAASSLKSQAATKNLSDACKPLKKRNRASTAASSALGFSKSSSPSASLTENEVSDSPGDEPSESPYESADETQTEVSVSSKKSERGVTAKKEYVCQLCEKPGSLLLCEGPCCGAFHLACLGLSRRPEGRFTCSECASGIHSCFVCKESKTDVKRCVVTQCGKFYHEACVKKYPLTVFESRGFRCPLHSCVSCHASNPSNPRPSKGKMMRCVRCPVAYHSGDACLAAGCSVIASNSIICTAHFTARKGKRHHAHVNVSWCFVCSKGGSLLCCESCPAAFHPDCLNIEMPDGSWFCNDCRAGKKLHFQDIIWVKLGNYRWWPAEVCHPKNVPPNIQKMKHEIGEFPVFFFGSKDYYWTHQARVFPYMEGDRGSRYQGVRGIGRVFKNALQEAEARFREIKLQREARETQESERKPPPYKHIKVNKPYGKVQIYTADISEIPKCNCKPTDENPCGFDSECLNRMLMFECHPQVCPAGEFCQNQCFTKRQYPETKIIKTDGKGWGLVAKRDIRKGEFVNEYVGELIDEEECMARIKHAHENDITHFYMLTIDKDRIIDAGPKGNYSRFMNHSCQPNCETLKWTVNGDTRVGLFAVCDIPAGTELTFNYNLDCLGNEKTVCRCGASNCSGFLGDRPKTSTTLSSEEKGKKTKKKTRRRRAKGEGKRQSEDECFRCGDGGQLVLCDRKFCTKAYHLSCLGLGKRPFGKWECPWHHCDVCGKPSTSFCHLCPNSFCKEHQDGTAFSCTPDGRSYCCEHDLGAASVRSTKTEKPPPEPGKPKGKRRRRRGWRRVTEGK

NS3 = NS3 (Hepatitis C virus, UniProt A3EZJ3); assay: PubChem AID 2173; parameters: species or system Hepacivirus hominis
[2] = molecular target: T3, Short transient receptor potential channel 4 (Mus musculus, UniProt Q9QUQ5); assay: block of DAMGO-driven TRPC4 calcium entry – cell-based, HEK293 TRPC4/mu-opioid, Fluo-4 calcium, dose response (AID 434942); format: functional;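 note: potency of inhibitors blocking the TRPC4 calcium response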
T3 sequence (Q9QUQ5 whole entry): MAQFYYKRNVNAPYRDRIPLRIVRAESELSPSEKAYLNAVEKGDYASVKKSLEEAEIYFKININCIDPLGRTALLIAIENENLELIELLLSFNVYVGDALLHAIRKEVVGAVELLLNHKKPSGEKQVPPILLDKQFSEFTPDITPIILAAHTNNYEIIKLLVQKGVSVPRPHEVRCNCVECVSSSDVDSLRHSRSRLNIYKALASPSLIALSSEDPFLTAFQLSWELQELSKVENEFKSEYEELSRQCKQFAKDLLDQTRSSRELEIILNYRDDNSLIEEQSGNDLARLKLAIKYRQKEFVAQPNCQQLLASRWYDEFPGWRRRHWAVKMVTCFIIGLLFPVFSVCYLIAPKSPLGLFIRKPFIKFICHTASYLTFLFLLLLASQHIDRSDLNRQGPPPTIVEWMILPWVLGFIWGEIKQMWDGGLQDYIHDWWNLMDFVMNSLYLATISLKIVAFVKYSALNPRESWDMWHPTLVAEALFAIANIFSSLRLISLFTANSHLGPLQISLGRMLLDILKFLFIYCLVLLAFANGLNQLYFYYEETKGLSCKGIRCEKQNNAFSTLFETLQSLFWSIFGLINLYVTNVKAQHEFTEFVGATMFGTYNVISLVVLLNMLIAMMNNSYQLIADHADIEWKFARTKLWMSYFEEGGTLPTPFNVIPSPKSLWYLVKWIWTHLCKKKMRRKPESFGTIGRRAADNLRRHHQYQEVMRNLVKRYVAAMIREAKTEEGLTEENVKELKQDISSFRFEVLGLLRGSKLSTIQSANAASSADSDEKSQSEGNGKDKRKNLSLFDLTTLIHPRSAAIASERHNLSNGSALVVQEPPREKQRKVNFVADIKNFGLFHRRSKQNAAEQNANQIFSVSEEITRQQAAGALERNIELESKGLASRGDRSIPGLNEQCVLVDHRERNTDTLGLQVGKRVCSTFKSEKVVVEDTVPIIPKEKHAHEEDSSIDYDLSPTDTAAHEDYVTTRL

[3] = molecular target: Mitogen-activated protein kinase 10 (Homo sapiens, UniProt P53779); assay: Dose response biochemical screening assay for inhibitors of c-Jun N-Terminal Kinase 3 (JNK3). [Related pubchem assays: 746 ]
[4] = molecular target: T4, Replicative DNA helicase DnaB (Mycobacterium tuberculosis, UniProt P9WMR3); assay: DnaB intein splicing inhibitors, dose response, biochemical, cell-free fluorescence (AID 449749); format: functional
T4 sequence (P9WMR3 whole entry): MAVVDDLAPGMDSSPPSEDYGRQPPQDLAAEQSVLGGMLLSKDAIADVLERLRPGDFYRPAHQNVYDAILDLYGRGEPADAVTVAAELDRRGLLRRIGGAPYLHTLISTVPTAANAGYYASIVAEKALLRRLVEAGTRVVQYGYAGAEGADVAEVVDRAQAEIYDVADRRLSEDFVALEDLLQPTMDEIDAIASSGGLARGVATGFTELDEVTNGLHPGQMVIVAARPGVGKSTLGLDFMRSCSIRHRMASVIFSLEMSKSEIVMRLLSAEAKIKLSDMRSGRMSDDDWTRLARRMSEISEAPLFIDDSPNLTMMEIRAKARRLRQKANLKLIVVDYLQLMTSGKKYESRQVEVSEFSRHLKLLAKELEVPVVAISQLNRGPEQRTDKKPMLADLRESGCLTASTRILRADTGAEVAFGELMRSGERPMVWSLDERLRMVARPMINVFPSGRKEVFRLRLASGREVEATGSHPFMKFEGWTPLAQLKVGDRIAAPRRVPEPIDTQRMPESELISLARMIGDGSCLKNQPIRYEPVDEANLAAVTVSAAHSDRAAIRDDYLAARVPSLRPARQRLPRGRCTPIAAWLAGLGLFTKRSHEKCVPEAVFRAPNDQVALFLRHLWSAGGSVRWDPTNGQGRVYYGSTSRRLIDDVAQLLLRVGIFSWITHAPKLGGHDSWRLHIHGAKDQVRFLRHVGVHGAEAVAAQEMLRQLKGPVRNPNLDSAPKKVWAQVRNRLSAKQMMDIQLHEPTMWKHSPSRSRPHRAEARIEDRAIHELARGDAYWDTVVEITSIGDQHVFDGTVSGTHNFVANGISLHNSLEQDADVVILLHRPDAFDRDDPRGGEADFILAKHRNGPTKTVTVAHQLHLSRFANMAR

[5] = viability of HCT116 lacking mutant beta-catenin – cell-based, human colon tumor, dose response (AID 1045); format: functional;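 note: HCT116 colon tumor cells with beta catenin knocked out; cells exposed to compound for 60 hours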
[6] = viability of PTEN-deleted HCT116 cells – cell-based, HCT116 PTEN knockout, dose response (AID 1047); format: functional;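 note: HCT116 colon tumor cells with PTEN knocked out; cells exposed to compound for 60 hours before readout; potency for loss of cell viability measured by luminescence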
[7] = molecular target: T5, Glutathione-S-transferase (Schistosoma japonicum, UniProt Q26513); assay: GST-antibody interaction or FRET quenching – biochemical, TR-FRET, artefact control for Vif-APOBEC3G degradation inhibitor project, dose response (AID 1117362); format: functional
T5 sequence (Q26513 whole entry): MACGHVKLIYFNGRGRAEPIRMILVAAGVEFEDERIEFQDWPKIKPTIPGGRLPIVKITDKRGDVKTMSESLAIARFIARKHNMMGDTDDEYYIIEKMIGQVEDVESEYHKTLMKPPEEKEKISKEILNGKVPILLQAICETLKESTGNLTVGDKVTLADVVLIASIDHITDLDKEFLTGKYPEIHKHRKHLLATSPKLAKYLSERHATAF

Protein RecA = molecular target: T6, Protein RecA (Mycobacterium tuberculosis, UniProt P9WHJ3); assay: Fluorescence Cell-Free Homogeneous Dose Retest to Identify Inhibitors of RecA-Intein Splicing Activity. [Related pubchem assays (depositor defined):AID2097, AID2223, AID489010, AID492950]; format: functional
T6 sequence (P9WHJ3 whole entry): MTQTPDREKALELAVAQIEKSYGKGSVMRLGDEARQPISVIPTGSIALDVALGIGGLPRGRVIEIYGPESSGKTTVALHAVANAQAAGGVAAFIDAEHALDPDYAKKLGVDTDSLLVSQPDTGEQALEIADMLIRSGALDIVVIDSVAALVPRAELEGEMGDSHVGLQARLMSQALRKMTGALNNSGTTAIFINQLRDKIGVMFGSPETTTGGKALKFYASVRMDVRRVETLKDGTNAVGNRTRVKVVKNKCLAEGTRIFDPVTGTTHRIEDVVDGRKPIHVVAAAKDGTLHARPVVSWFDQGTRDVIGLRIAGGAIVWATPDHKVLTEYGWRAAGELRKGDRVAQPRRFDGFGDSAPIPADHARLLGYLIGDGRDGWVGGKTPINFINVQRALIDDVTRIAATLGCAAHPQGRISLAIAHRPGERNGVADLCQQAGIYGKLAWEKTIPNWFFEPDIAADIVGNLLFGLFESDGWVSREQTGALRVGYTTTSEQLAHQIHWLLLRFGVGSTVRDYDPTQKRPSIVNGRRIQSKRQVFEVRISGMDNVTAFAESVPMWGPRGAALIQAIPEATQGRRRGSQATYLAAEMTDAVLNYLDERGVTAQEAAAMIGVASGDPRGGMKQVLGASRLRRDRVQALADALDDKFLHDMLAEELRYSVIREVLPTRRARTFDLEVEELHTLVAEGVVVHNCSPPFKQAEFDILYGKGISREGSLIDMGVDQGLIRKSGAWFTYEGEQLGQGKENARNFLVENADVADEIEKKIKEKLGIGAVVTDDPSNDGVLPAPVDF

[8] = viability loss in THP-1 monocytes – THP-1 cells, cytotoxicity control for Vif-APOBEC3G degradation inhibitor project, dose response (AID 1117359); format: functional; details: THP-1
Nonstructural protein 1 = Nonstructural protein 1 (Influenza A virus, UniProt Q194T2); format: functional, Influenza A virus (A/California/07/2009(H1N1))
Nonstructural protein 1, sequence (Q194T2 whole entry): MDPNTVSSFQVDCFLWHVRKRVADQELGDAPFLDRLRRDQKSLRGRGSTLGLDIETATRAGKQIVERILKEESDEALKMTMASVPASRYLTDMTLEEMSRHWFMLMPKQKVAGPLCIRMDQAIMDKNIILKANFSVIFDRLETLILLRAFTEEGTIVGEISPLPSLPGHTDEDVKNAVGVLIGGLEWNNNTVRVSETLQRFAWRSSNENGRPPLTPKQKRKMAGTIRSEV

Ion channel NompC, sequence (Q7T1G6 whole entry): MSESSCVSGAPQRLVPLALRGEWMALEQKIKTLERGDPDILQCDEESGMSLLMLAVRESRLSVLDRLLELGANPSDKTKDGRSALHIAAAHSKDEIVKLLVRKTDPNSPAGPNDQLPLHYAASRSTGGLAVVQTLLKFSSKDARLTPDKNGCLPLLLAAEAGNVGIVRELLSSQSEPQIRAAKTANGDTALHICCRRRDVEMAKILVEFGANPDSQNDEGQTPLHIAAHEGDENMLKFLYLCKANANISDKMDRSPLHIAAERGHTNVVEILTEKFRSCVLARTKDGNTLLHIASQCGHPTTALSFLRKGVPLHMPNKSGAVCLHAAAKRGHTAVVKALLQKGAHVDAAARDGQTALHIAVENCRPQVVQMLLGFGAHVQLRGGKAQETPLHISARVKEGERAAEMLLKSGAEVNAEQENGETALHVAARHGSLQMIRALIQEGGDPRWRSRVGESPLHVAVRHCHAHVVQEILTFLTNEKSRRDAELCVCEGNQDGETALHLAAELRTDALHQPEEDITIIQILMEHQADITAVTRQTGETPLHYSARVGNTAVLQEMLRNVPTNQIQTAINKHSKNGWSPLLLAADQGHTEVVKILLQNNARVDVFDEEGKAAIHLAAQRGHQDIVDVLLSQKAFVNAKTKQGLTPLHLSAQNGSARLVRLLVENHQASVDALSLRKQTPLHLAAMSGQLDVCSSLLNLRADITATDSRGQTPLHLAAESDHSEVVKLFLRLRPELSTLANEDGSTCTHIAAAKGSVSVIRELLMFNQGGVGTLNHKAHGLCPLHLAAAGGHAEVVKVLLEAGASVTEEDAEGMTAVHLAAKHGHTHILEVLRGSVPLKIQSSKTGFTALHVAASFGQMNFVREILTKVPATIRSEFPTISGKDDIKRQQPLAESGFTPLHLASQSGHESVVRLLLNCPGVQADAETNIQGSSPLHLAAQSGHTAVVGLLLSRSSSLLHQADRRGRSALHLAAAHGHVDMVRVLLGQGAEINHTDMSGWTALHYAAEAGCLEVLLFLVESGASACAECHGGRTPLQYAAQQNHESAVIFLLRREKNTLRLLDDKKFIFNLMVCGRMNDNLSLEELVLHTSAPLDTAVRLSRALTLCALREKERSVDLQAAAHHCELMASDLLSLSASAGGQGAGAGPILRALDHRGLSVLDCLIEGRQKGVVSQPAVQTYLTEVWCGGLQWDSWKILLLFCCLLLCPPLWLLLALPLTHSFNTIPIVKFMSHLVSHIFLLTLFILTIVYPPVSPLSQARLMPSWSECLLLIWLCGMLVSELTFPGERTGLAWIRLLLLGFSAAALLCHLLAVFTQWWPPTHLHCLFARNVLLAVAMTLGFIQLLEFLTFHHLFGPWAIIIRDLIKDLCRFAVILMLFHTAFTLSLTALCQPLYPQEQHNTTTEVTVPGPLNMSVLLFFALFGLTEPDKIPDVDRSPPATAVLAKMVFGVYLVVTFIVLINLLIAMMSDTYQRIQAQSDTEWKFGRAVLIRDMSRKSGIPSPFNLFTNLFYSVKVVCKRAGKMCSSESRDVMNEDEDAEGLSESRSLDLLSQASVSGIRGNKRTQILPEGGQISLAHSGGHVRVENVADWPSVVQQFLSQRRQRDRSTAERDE
Mitogen-activated protein kinase 10, sequence (P53779 whole entry): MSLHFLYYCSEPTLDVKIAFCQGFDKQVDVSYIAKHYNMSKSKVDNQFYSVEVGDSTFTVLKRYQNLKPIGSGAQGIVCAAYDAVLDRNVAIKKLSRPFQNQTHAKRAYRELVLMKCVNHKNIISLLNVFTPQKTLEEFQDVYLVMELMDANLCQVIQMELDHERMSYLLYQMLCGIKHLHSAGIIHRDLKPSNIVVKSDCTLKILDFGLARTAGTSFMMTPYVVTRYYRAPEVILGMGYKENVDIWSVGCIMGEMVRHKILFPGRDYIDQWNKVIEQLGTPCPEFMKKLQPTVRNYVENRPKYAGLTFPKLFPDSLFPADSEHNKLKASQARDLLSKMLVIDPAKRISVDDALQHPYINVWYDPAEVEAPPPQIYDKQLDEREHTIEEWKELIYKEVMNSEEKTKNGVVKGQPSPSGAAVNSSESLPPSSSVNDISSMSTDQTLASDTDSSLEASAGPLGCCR
NS3, sequence (A3EZJ3 whole entry): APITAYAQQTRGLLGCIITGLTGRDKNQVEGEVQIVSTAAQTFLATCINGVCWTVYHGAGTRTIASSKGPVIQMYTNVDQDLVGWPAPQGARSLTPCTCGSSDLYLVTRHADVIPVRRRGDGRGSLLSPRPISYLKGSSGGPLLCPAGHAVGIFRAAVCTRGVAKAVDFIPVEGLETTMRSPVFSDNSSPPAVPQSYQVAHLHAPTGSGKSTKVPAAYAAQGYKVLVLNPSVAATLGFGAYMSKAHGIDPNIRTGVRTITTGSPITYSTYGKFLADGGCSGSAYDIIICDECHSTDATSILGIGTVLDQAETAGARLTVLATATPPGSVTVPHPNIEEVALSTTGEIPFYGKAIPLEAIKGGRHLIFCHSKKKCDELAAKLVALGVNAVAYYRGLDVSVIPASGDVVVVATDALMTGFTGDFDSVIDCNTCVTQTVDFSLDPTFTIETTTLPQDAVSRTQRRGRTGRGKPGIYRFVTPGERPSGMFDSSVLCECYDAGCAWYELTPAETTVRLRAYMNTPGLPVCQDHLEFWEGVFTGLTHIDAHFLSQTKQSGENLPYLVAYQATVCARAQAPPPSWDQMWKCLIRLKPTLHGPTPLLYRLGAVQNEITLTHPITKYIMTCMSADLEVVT

With `O=C(Nc1nc(-c2ccc3ccccc3c2)cs1)C1CCN(S(=O)(=O)c2cccs2)CC1` the EC50 (Ion channel NompC) was > 29.9 µM (not active) and the EC50 (Mucolipin-3) was 14.2 µM (not active).
With `O=S(=O)(c1ccc(Cl)cc1Br)N1CCCCC1` the EC50 (Ion channel NompC) was > 29.9 µM (not active) and the EC50 (Mucolipin-3) was > 29.9 µM (not active).
With `CCCOc1ccc(-c2nc(SCc3ccccc3)[nH]c(=O)c2C#N)cc1OC` the AC50 [1] was > 20 µM (inactive), the IC50 (NS3) was 1.72 µM (active) and the EC50 [2] was 4.73 µM (active).
In the case of `CC1CCc2nc(N)c(C#N)c(-c3ccncc3)c2C1` (centres undefined), the IC50 [3] was > 93.1 µM (not active).
For `COc1ccc(S(=O)(=O)NC2CCCC2)c(Cl)c1Cl`, the EC50 (Ion channel NompC) was > 29.9 µM (not active) and the EC50 (Mucolipin-3) was 3.55 µM (active).
With `CC[n+]1c(/C=C2\C=C(C)CC(C)(C)C2)sc2ccccc21` the AC50 [4] was > 380 µM (inactive), the EC50 [5] was 9.81 µM (active) and the EC50 [6] was 11.7 µM (active). For the same molecule, the IC50 [7] was > 100 µM (active), the EC50 (Protein RecA) was 27.3 µM (active) and the CC50 [8] was 4.22 µM (active).
For `Cc1[nH]c(=O)[nH]c1C(=O)CCCCC(=O)OCC(=O)Nc1ccccn1`, the AC50 [1] was 1.26 µM (active), the IC50 [3] was > 93.1 µM (not active) and the IC50 (Nonstructural protein 1) was 1.98 µM (active).

Reference: ChEMBL document CHEMBL1201862, “PubChem BioAssay data set” (2004)
